In assay [1] the test system is Wnt/β-catenin signaling pathway. Briefly: Wnt reporter assay (CellSensor LEF/TCF-bla FreeStyle 293F cells). It counts as cell-based. The note with it: Homo sapiens; LEF/TCF-bla 293F cells, LiCl and mWnt3a stimulation. As to the method:
The Wnt reporter assay was performed in stably transfected human HEK293 cells. Wnt signaling was induced by administration of Wnt3a protein and read out by β-Lactamase mediated cleavage of CCF4-AM and subsequent fluorescent detection.
CellSensor LEF/TCF-bla FreeStyle 293F cells (invitrogen #K1677) contain a beta-lactamase reporter gene under control of the β-catenin/LEF/TCF binding elements stably integrated into FreeStyle 293F cells. This cell line can be used to detect antagonists of the Wnt/β-catenin signaling pathway when stimulated by mouse Wnt3a or LiCl. The detection of beta-lactamase is possible with LiveBLAzer FRET—B/G Loading Kit (invitrogen #K1095) with CCF4-AM as subtrate.
Culture Medium: DMEM Medium +10% dialyzed FBS (PAN 2102-P290310), +1% NEAA (PAA M11-003), +1% P/S (Penicillin/Streptomycin, PAA P11-010) +25 mM HEPES (PAA S11-001), +5 μg/ml Blasticidin (PAA P05-017).
Cells (CellSensor LEF/TCF-bla FreeStyle 293F, invitrogen K1677) were split with Culture Medium to reach a confluence at the beginning of the assay of 80-90%.
At start of the assay, cells were harvested from culture and resuspend in assay medium at density of 0,66*10̂6 cells/ml. Subsequently, 60μ1 cell suspension were pipetted in each well of a Poly-D-Lysine 96 well Plate (BD #354640, vertical rows are marked 1 through 12, horizontal lanes are marked A through H),
Plates were subsequently incubated at 37° C. for at least 2 h.
To stimulate with Wnt3a, overnight prestimulation of Wnt signalling pathway with LiCl is necessary. Subsequently, an 8M aqueous LiCl solution was diluted 1:200 in assay medium, and 30 μl of said diluted LiCl solution was plated into the appropriate wells (see below pipetting scheme). Plates were then incubated at 37° C. over night.
Subsequently, compounds and controls were prepared as follows: mWnt3a (R&D 1324-WN, dissolved in PBS+0.1% BSA to 40 μg/ml) was diluted 1:100 in assay medium (=400 ng/ml). Compounds (Cpd) were diluted to a concentration of 10 mM in DMSO to prepare dilution series in assay medium (final concentrations 30 μM, 10 μM, 3 μM, 1 μM, 0.3 μM, 0.1 μM, 0.03 μM and 0.01 μM), which were pipetted into the appropriate wells (see below pipetting scheme). For each dilution of each compound, 3 replicates were tested. Final DMSO concentration was 0.3%.
LiCl and mWnt3a stimulated cells were used as High control (HC), unstimulated cells were used as low control, a blank was prepared from cell free medium plus mWnt3a, and a functional control was prepared with a known Wnt inhibitor (e.g. PKF118-310), final concentrations were as above.
Subsequently, the well was incubated for 5 h at 37° C.
At t=23 hours, FRET reagent mix (Loading Kit with CCF4-AM, Life Technologies #K1096) was prepared; per plate: 138 μl Solution B, 13.8 μl FRET-reagent, and 2300 μl Solution C. 24 μl FRET reagent mix were plated to each well, subsequently plates were incubated for at least 2 h in the dark (it is possible to incubate over night). Subsequently, plates were measured in the BMG FluorStar® plate reader at an emission waveltengths of 460 and 520 nm and with an excitation wavelength of 405 nm.
To determine potential cytotoxicity of the compounds, plates were centrifuge and the supernatant was discarded by dumping the plates. Subsequently, 100 μl Opti-MEM and 50 μl ViaLight (Lonza #LT07-321) Lysis Buffer were added to each well, followed by incubation for 10 min at room temperature (25° C.). Subsequently, 100 μl ViaLight reagent were added to each well, followed by incubation for 2 min at room temperature (25° C.) in the dark. Optionally, 200 μl of the obtained suspension were transferred to a white 96 well plate. The luminescence was measured with a Tecan Ultra plate reader.

Assay [2] deals with Hedgehog signaling pathway. Briefly: Hedgehog reporter assay (Gli Reporter - NIH3T3 Cell Line). The class given is cell-based. The note with it: Mus musculus; Gli reporter NIH3T3 cells, murine SHH stimulation, 24 h; read-out: HH Assay. As to the method: In order to investigate the potency of test compounds to inhibit the Hedgehog signaling pathway, a Gli-Reporter assay was performed.
The “Gli Reporter—NIH3T3 Cell Line” contains the firefly luciferase gene under the control of Gli responsive elements stably integrated into murine NIH3T3 cells (cells purchased from Amsbio). The luciferase expression correlates with activation of the hedgehog signaling pathway. This cell line is validated for its response to stimulation with murine Sonic Hedgehog and to treatment with inhibitors of the hedgehog signaling pathway. A multiplexed viability assay was used to discriminate inhibition on the pathway activity from cell toxicity.
Growth Medium: DMEM, 10% Calf Serum, 1% Penicillin/Streptomycin 500 μg/ml Geneticin (G418 Stock 50 mg/ml).
25.000 cells per well were seeded into a white 96 well plate in 100 μl growth medium and incubated over night at 37° C. and 5% CO2. After removing the supernatant the test compounds and controls (known GLI inhibitor, e.g. GANT-61) were added in different concentrations in a final volume of 45 μl and incubated for 1 h at 37° C. and 5% CO2. For the stimulation of the Hedgehog pathway 5 μl of 10 μg/ml concentrated murine sonic hedgehog (SHH) was added to the cells. A final concentration of 1 μg/ml mSHH and 0.1% DMSO was reached per well. After incubation for 24 h at 37° C. the cells were investigated for viability and reporter activity.
Viability: For the determination of the viability of the treated cells the CellTiter-Fluor Kit from Promega was used. Essentially, only proteases of viable cells are able to cleave the cell-permeant substrate Gly-Phe-AFCoumarin (GF-AFC). By this cleavage the fluorescent AFC is set free and can be detected in a fluorescence reader. For this assay 10 μl of GF-AFC substrate (CellTiter-Fluor, Promega #G6082) was diluted in 2 ml assay buffer from the CellTiter-Fluor Kit and 10 μl of this dilution was added per well to the cells and incubated for 30 min at 37° C. The fluorescence was measured with excitation at 380-400 nm and emission at 505 nm.
Reporter activity: The firefly luciferase reporter activity was detected with the ONE-Glo™ Luciferase Assay System from Promega. For this assay 50 μl ONE-Glo luciferase reagent (Promega #E6120, contains cell lysis buffer and luciferin) was added to each well and incubated at room temperature for 5 min. Luminescence was detected in a plate reader and served as a degree for reporter activity.

Some results are limits rather than exact numbers.

For one compound, IC50 results are on record in US20170240556A1, “BIFLUORODIOXALANE-AMINO-BENZIMIDAZOLE KINASE INHIBITORS FOR THE TREATMENT OF CANCER, AUTOIMMUNEINFLAMMATION AND CNS DISORDERS” (4SC DISCOVERY GMBH, priority 2012, published 2017).

On to `COc1cccc(C(=O)Nc2nc3cc4c(cc3[nH]2)OC(F)(F)O4)c1` [Compound 56, N-(2,2-difluoro-5H-[1,3]dioxolo[4′,5′:4,5]benzo[1,2-d]imidazol-6-yl)-3-methoxybenzamide], for which the values for the IC50 in assay [1] and in assay [2] were less than 5000 nM and not above 500 nM, respectively.
